In brackets after ≈: the same amount, converted by molar mass.
Experiments:
[1] = test system: Human Rhinovirus serotypes HRV- 2,-29,-39,-85,-9,-15,-51,-59,-63,-89,-41; experiment: Picornavirus Minimal Inhibitory Concentration Test (cytopathic effect reduction assay), first panel of rhinoviruses; format: cell-based; conditions: Human rhinovirus sp.; medium value of the IC50-values of all serotypes of the first panel; Ohio Hela cells, 3 to 5 days at 33°C; IC50 = concentration protecting 50% of the cells from cytopathic effects; read-out: Med₁
Description: (§1) The Minimal Inhibitory Concentration of the compounds of the present invention against the Human Rhinovirus strains (HRV) -2,-9,-14,-15,-29,-39,-41,-42,-45,-51, -59, -63,-70,-72,-85,-86 and -89 was determined by a standard cytopathic effect reduction assay as follows. To each of the ninty six (96) wells of a microtiter 96 well tissue culture plate there was added 60 µl of a Ohio Hela cell maintenance medium [Eagle's Basal medium supplemented with 5% Foetal Calf Serum (FCS)]. To two wells there was added 60 µl of an appropriate starting dilution of a compound of formula (I) and two-fold dilutions were made to cover a wide range of compound concentrations. Subsequently there were added 120 µl of an infectious solution of virus in Eagle's Basal Medium with 2% Hepes buffer, 2% FCS and 30 mM MgCl₂ to all wells except cell and compound controls. Said infectious virus solution having a TCID₅₀-value (Tissue Culture Infectious Dose) of about 100.
(§2) The TCID₅₀-value is the dose of viruses which initiates a cytopathic effect in 50% of the inoculated cells. 150 µl of the thus obtained virus-compound mixtures were then transferred to microtitre plates with subconfluent Ohio Hela Cells, grown in 100 µl of maintenance medium. Appropriate virus controls, cell controls and compound controls were included in each test. Plates were incubated for 3 to 5 days at 33°C in 5% CO₂ atmosphere. […] The IC₅₀-value for each virus-compound series was taken as the concentration in ng/ml that protected 50% of the cells from cytopathic effects with respect to the untreated controls. In the standard test procedure, the compounds were tested against two panels of rhinoviruses, a first panel consisting of serotypes HRV- 2,-29,-39,-85,-9,-15,-51,-59,-63,-89,-41 and the other panel consisting of HRV-42,-45,-14,-70,-72 and -86.
(§3) The IC₅₀-value for each rhinovirus serotype was determined, and the efficacy of each compound was determined in terms of the Med₁-value and Med₂-value, which is the medium value of the IC₅₀-values of all serotypes from the first and second panel respectively.

[2] = test system: Human Rhinovirus serotypes HRV-42,-45,-14,-70,-72 and -86; experiment: Picornavirus Minimal Inhibitory Concentration Test (cytopathic effect reduction assay), second panel of rhinoviruses; format: cell-based; conditions: Human rhinovirus sp., HRV42; medium value of the IC50-values of all serotypes of the second panel; Ohio Hela cells, 3 to 5 days at 33°C; IC50 = concentration protecting 50% of the cells from cytopathic effects; read-out: Med₂
Description: as §1, §2, §3

| SMILES | IC50 [1] | IC50 [2] |
| --- | --- | --- |
| CCOC(=O)c1ccc(OCCC2CCN(c3nc(C(=O)OCC)cs3)CC2)cc1 [Compound 6] | 0.031 µg/mL (≈ 0.0717 µM) | 0.4 µg/mL (≈ 0.925 µM) |
| CCOC(=O)c1ccc(OCCC2CCN(c3nnc(C)s3)CC2)cc1 [Compound 13, ethyl 4-[2-[1-(5-methyl-1,3,4-thiadiazol-2-yl)-4-piperidinyl]ethoxy]benzoate] | 0.01 µg/mL (≈ 0.0266 µM) | 0.035 µg/mL (≈ 0.0932 µM) |
| CCOC(=O)c1ccc(OCCC2CCN(C3=NS(=O)(=O)c4ccccc43)CC2)cc1 [Compound 14] | 0.053 µg/mL (≈ 0.12 µM) | 0.344 µg/mL (≈ 0.777 µM) |
| CCOC(=O)c1ccc(OCCC2CCN(c3nnc(Br)s3)CC2)cc1 [Compound 17] | 0.006 µg/mL (≈ 0.0136 µM) | 0.0705 µg/mL (≈ 0.16 µM) |
| CCOC(=O)c1ccc(OCCC2CCN(c3nsc4ccccc34)CC2)cc1 [Compound 19, ethyl 4-[2-[1-(1,2-benzisothiazol-3-yl)-4-piperidinyl]ethoxy]benzoate] | 0.144 µg/mL (≈ 0.351 µM) | 0.25 µg/mL (≈ 0.609 µM) |
| CCOC(=O)c1ccc(OCCN2CCN(c3nnc(Br)s3)CC2)cc1 [Compound 27] | 0.044 µg/mL (≈ 0.0997 µM) | 0.011 µg/mL (≈ 0.0249 µM) |
| CCOC(=O)c1ccc(OCCCN2CCN(c3nnc(Br)s3)CC2)cc1 [Compound 29] | 0.175 µg/mL (≈ 0.384 µM) | 0.037 µg/mL (≈ 0.0813 µM) |
| CCOC(=O)c1ccc(OCCN2CCN(c3nc(C(=O)OCC)cs3)CC2)cc1 [Compound 34, ethyl 2-[4-[2-[4-(ethoxycarbonyl)phenoxy]ethyl]-1-piperazinyl]-4-thiazolecarboxylate] | 0.088 µg/mL (≈ 0.203 µM) | 0.009 µg/mL (≈ 0.0208 µM) |
| CCOC(=O)c1ccc(OCCCN2CCN(c3nncs3)CC2)cc1 [Compound 35] | 0.376 µg/mL (≈ 0.999 µM) | 0.172 µg/mL (≈ 0.457 µM) |
| CCOC(=O)c1ccc(OCCN2CCN(c3nc4ccccc4s3)CC2)cc1 [Compound 46, ethyl 4-[2-[4-(2-benzothiazolyl)-1-piperazinyl]ethoxy]benzoate] | 0.312 µg/mL (≈ 0.758 µM) | 0.027 µg/mL (≈ 0.0656 µM) |
| CCOC(=O)c1ccc(OCCCN2CCN(c3nc(C(=O)OCC)cs3)CC2)cc1 [Compound 49] | 0.156 µg/mL (≈ 0.349 µM) | 0.097 µg/mL (≈ 0.217 µM) |
| CCc1noc(-c2ccc(OCCC3CCN(c4nnc(Br)s4)CC3)cc2)n1 [Compound 61] | 0.011 µg/mL (≈ 0.0237 µM) | 0.244 µg/mL (≈ 0.525 µM) |

— patent EP0398425A1, “Antirhinoviral piperidinyl, pyrrolidinyl and piperazinyl alkylphenol ethers” (JANSSEN PHARMACEUTICA N.V., priority 1989, dated 1990)
